Laboratory results reported in publication doi:10.1101/2025.09.24.678246 (bioRxiv, 2025).
≈ marks a conversion by molar mass, not a printed value. Where “and” joins values, the source holds several entries; their conditions need not be identical. Identical values can stand only once. Entries after “also recorded” stand apart in the source; their conditions may differ. Like-named read-outs stand apart in the source and are kept apart here.

How the values were obtained:
[1] = test system: drug sensitive and resistant Mtb isolates; assay: microbe, parasite or virus in culture; assay type: cell-based; details: Mycobacterium tuberculosis
WT H37Rv = assay type: cell-based, Mycobacterium tuberculosis
[2] = test system: C48-resistant Mtb H37Rv mutants; assay type: cell-based, Mycobacterium tuberculosis; details: for susceptibility of C48-resistant mutants: compared with parent strain
[3] = test system: H37Rv ΔbioA TetON-1 (BioA-OE); assay type: cell-based; details: for normalized growth (no drug = 100): Fig. 2C, BioA-OE
[4] = test system: H37Rv ΔbioA TetON-5 (BioA-UE); assay type: cell-based; details: Fig. 2C
[5] = M. tb CRC clinical strain K5072429, DS

`CC(=O)NC[C@H]1CN(c2ccc(N3CCOCC3)c(F)c2)C(=O)O1` [Linezolid, reference compound] was tested, and the MIC ([1]; M. tb CDC1551, DS) was 1.2 µM (≈ 0.405 µg/mL), the MIC [1, 5] was 1.2 µM (≈ 0.405 µg/mL) and the MIC ([1]; M. tb Erdman, DS) was 1.6 µM (≈ 0.54 µg/mL). The MIC ([1]; M. tb K03b00DS, DS) was 2.3 µM (≈ 0.776 µg/mL), the MIC ([1]; M. tb K04b00DS, DS) was 1.2 µM (≈ 0.405 µg/mL) and the MIC ([1]; M. tb K07b00DS, DS) was 2.3 µM (≈ 0.776 µg/mL). The MIC ([1]; M. tb K09b00DS, DS) was 1.2 µM (≈ 0.405 µg/mL), the MIC ([1]; M. tb K13b00DS, DS) was 1.2 µM (≈ 0.405 µg/mL) and the MIC ([1]; M. tb K14b00DS, DS) was 1.2 µM (≈ 0.405 µg/mL). For the same compound, the MIC ([1]; M. tb K35b00DS, DS) was 1.2 µM (≈ 0.405 µg/mL), the MIC ([1]; M. tb NIH_G1DS, DS) was 2.3 µM (≈ 0.776 µg/mL) and the MIC ([1]; M. tb NIH_G9R, DR) was 2.3 µM (≈ 0.776 µg/mL). The MIC ([1]; M. tb NIH_G11R, DR) was 2.3 µM (≈ 0.776 µg/mL), the MIC ([1]; M. tb NIH_G12, DS) was 2.3 µM (≈ 0.776 µg/mL) and the MIC ([1]; M. tb NIH_G16R, DR) was 3.13 µM (≈ 1.06 µg/mL). It also gave an MIC ([1]; M. tb NIH_G17R, DR) of 3.13 µM (≈ 1.06 µg/mL), an MIC ([1]; M. tb NIH_G22R, DR) of 3.13 µM (≈ 1.06 µg/mL) and an MIC ([1]; M. tb NIH_GA36, DS) of 1.6 µM (≈ 0.54 µg/mL).

In the case of `O=C1CCc2cc(N3CCN(C(=O)c4ccc(F)c(Br)c4)CC3)ncc21` [C48], the “frequency of spontaneously resistant mutants” value (WT H37Rv) is reported as “approximately 3×10^−8”, the “MIC shift compared to WT” value [2] is reported as “Large; also recorded: Medium” and the “increase in MIC of 30 resistant mutants compared to WT H37Rv” value [2] is reported as “approximately 300 fold”. The “resistance level of bioA mutant Met91Ile” value [2] was “high-level resistance”, the “resistance level of bioA mutants Met91Val, Met91Thr, Cys168Tyr” value [2] was “medium-level resistance” and the “potency with increasing expression of BioA” value ([3]; ATc-inducible BioA overexpression) was “decreases monotonically”. For the same compound, the “normalized growth (no drug = 100)” value ([3]; [C48] 0.02 µM) was 99.1764 and 99.8577 and 98.7033, the “normalized growth (no drug = 100)” value ([3]; [C48] 0.0434 µM) was 95.2869 and 101.385 and 96.6682 and the “normalized growth (no drug = 100)” value ([3]; [C48] 0.0941 µM) was 94.175 and 96.4099 and 95.7333. For the same compound, the “normalized growth (no drug = 100)” value ([3]; [C48] 0.204 µM) was 92.9284 and 86.8526 and 87.9532, the “normalized growth (no drug = 100)” value ([3]; [C48] 0.443 µM) was 34.2705 and 25.7913 and 36.1572 and the “normalized growth (no drug = 100)” value ([3]; [C48] 0.96 µM) was 3.4759 and 3.24 and 3.555. For the same compound, the “normalized growth (no drug = 100)” value ([3]; [C48] 4.52 µM) was 1.679 and 2.083 and 1.432, the “normalized growth (no drug = 100)” value ([3]; [C48] 21.3 µM) was 2.409 and 2.139 and 2.1956 and the “normalized growth (no drug = 100)” value ([3]; [C48] 46.1 µM) was 1.96 and 2.297 and 2.072. The “normalized growth (no drug = 100)” value ([3]; [C48] 100 µM) was 1.477 and 2.083 and 1.862, the MIC [1, 5] was less than 0.024 µM and the MIC ([1]; M. tb Erdman, DS) was 0.024 µM (≈ 0.01 µg/mL). The MIC ([1]; M. tb HN878, DS) was 0.0156 µM (≈ 0.00652 µg/mL), the MIC ([1]; M. tb K03b00DS, DS) was 0.047 µM (≈ 0.0197 µg/mL) and the MIC ([1]; M. tb K04b00DS, DS) was 0.023 µM (≈ 0.00962 µg/mL). For the same compound, the MIC ([1]; M. tb K05b00DS, DS) was 0.0156 µM (≈ 0.00652 µg/mL), the MIC ([1]; M. tb K07b00DS, DS) was 0.023 µM (≈ 0.00962 µg/mL) and the MIC ([1]; M. tb K08b00DS, DS) was less than 0.024 µM. For the same compound, the MIC ([1]; M. tb K09b00DS, DS) was 0.023 µM (≈ 0.00962 µg/mL), the MIC ([1]; M. tb K10b00DS, DS) was less than 0.024 µM and the MIC ([1]; M. tb K11b00DS, DS) was 0.0625 µM (≈ 0.0261 µg/mL). For the same compound, the MIC ([1]; M. tb K12b00DS, DS) was 0.023 µM (≈ 0.00962 µg/mL), the MIC ([1]; M. tb K13b00DS, DS) was 0.023 µM (≈ 0.00962 µg/mL) and the MIC ([1]; M. tb K14b00DS, DS) was 0.0156 µM (≈ 0.00652 µg/mL). For the same compound, the MIC ([1]; M. tb K15b00DS, DS) was less than 0.024 µM, the MIC ([1]; M. tb K16b00DS, DS) was less than 0.024 µM and the MIC ([1]; M. tb K17b00DS, DS) was less than 0.024 µM. For the same compound, the MIC ([1]; M. tb K35b00DS, DS) was less than 0.024 µM, the MIC ([1]; M. tb NIH1B314, DR) was 0.0313 µM (≈ 0.0131 µg/mL) and the MIC ([1]; M. tb NIH_G1DS, DS) was less than 0.024 µM. For the same compound, the MIC ([1]; M. tb NIH_G9R, DR) was 0.0156 µM (≈ 0.00652 µg/mL), the MIC ([1]; M. tb NIH_G10R, DR) was 0.0313 µM (≈ 0.0131 µg/mL) and the MIC ([1]; M. tb NIH_G11R, DR) was 0.0156 µM (≈ 0.00652 µg/mL). It also gave an MIC ([1]; M. tb NIH_G12, DS) of less than 0.024 µM, an MIC ([1]; M. tb NIH_G16R, DR) of less than 0.024 µM and an MIC ([1]; M. tb NIH_G17R, DR) of less than 0.024 µM. For the same compound, the MIC ([1]; M. tb NIH_G22R, DR) was less than 0.024 µM, the MIC ([1]; M. tb NIH_GA36, DS) was less than 0.024 µM and the MIC ([1]; M. tb NIH_SA3, DS) was less than 0.024 µM. It also gave an MIC ([1]; M. tb NIH_SA23, DS) of less than 0.024 µM, an MIC ([1]; M. tb NIH_SA27, DS) of less than 0.024 µM and an MIC ([1]; M. tb NIH_SA39, DS) of less than 0.024 µM. The MIC ([1]; M. tb NIH_SA43, DS) was less than 0.024 µM, the MIC ([1]; M. tb NIH_SA125, DS) was less than 0.024 µM and the “normalized growth (no drug = 100)” value ([4]; [C48] 0.02 µM) was 85.8582 and 52.7583 and 51.6425. For the same compound, the “normalized growth (no drug = 100)” value ([4]; [C48] 0.0434 µM) was 81.0305 and 46.7008 and 49.5132, the “normalized growth (no drug = 100)” value ([4]; [C48] 0.443 µM) was 0.2448 and 0.3701 and 0.3017 and the “normalized growth (no drug = 100)” value ([4]; [C48] 4.52 µM) was 0.6433 and 0.5522 and 0.8369. For the same compound, the “normalized growth (no drug = 100)” value ([4]; [C48] 21.3 µM) was 0.723 and 0.8369 and 1.008, the “normalized growth (no drug = 100)” value ([4]; [C48] 46.1 µM) was 1.133 and 0.9394 and 1.076 and the “normalized growth (no drug = 100)” value ([4]; [C48] 100 µM) was 0.9037 and 0.9849 and 0.9735.

`CO[C@H]1/C=C/O[C@@]2(C)Oc3c(C)c(O)c4c(O)c(c(/C=N/N5CCN(C)CC5)c(O)c4c3C2=O)NC(=O)/C(C)=C\C=C\[C@H](C)[C@H](O)[C@@H](C)[C@@H](O)[C@@H](C)[C@H](OC(C)=O)[C@@H]1C` [Rifampicin, rifampicin, reference compound] was tested, and the “susceptibility of C48-resistant mutants” value [2] was “retained susceptibility”.

`NNC(=O)c1ccncc1` [INH, isoniazid, reference compound] was tested, and the “susceptibility of C48-resistant mutants” value [2] was “retained susceptibility”.
